Experimental data taken from paper PMC7714403 (JCI Insight, 2020).
Where two headings read alike, the source gives them in different places.

Legend:
Assay in all cases: KiNativ, MOLM13 live cells
Type in all cases: cell-based
p70S6K = p70S6K (Homo sapiens, UniProt P23443); conditions: MOLM-13; 100 nM, 2 hours; Lys2; read-out: Inhibition vs DMSO
Method: (§1) Samples were analyzed by KiNativ in situ kinase profiling by ActivX Biosciences.

MSK1 domain1 = biological target: T1, MSK1 domain1 (Homo sapiens, UniProt O75582); conditions: MOLM-13; 100 nM, 2 hours; Lys2; read-out: Inhibition vs DMSO
T1 construct: MSK1 domain1
Method: as §1

FGR = FGR (Homo sapiens, UniProt P09769); conditions: MOLM-13; 100 nM, 2 hours; Activation Loop; read-out: Inhibition vs DMSO
Method: as §1

IRAK4 = biological target: T2, IRAK4 (Homo sapiens, UniProt Q9NWZ3); conditions: 100 nM, 2 hours
T2 sequence (Q9NWZ3 1-460): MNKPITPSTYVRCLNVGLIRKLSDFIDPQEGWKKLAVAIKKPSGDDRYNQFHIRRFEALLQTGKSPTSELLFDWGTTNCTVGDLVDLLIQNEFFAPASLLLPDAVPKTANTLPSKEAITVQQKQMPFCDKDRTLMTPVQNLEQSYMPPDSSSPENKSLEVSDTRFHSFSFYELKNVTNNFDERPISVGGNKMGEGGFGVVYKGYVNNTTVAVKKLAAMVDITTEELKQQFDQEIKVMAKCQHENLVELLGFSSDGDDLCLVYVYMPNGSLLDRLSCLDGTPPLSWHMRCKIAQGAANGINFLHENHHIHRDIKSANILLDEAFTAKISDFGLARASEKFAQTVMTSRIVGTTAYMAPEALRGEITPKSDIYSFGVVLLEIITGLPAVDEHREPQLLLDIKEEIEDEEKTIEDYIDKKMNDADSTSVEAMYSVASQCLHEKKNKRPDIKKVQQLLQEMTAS
Method: as §1

ULK3 = ULK3 (Homo sapiens, UniProt Q6PHR2); conditions: 100 nM, 2 hours; Lys1
Method: as §1

LATS1 = biological target: T3, LATS1 (Homo sapiens, UniProt O95835); conditions: MOLM-13, 2 h, 100 nM
T3 sequence (O95835 1-1130): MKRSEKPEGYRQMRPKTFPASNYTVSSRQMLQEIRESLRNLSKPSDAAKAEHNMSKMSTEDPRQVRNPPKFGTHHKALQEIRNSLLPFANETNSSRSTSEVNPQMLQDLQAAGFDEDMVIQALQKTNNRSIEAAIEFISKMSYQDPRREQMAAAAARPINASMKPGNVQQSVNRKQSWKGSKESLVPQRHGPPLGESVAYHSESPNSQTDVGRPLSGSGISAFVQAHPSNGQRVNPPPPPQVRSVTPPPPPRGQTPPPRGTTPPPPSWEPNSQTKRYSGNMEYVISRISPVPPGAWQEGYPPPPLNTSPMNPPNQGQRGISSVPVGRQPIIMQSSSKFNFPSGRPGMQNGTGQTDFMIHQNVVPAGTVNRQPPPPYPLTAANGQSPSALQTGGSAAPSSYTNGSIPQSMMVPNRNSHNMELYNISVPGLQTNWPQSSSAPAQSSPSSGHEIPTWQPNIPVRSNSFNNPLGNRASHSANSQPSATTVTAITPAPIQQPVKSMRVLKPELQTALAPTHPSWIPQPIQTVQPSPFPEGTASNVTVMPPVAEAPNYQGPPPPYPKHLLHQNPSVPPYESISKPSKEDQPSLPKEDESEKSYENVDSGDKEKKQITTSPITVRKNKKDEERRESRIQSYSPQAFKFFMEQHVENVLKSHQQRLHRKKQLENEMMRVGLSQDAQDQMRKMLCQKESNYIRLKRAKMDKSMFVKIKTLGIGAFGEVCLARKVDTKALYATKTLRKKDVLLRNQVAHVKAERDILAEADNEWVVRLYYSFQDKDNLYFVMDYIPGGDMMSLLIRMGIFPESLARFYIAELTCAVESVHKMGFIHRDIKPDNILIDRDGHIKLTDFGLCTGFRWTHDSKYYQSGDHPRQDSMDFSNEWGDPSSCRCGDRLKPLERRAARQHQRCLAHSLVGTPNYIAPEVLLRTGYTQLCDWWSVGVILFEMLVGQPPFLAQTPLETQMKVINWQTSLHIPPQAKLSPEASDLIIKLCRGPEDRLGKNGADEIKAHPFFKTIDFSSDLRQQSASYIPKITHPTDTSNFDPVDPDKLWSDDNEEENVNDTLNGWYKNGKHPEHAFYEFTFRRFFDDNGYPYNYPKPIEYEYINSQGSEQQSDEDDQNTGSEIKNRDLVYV
Method: as §1

PIP4K2B = PIP4K2B (Homo sapiens, UniProt P78356); conditions: MOLM-13; 100 nM, 2 hours; ATP; read-out: Inhibition vs DMSO
Method: as §1

TAK1 = TAK1 (Homo sapiens, UniProt O43318); conditions: MOLM-13; 100 nM, 2 hours; Lys2; read-out: Inhibition vs DMSO
Method: as §1

NEK8 = NEK8 (Homo sapiens, UniProt Q86SG6); conditions: MOLM-13; 100 nM, 2 hours; Lys2; read-out: Inhibition vs DMSO
Method: as §1

ARAF = ARAF (Homo sapiens, UniProt P10398); conditions: MOLM-13; 100 nM, 2 hours; Lys2; read-out: Inhibition vs DMSO
Method: as §1

CaMK1a = CaMK1a (Homo sapiens, UniProt Q14012); conditions: MOLM-13; 100 nM, 2 hours; Lys1; read-out: Inhibition vs DMSO
Method: as §1

SMG1 = SMG1 (Homo sapiens, UniProt Q96Q15); conditions: 100 nM, 2 hours, ATP
Method: as §1

NDR1 = NDR1 (Homo sapiens, UniProt Q15208); conditions: MOLM-13, 2 h, 100 nM
Method: as §1

BRAF = BRAF (Homo sapiens, UniProt P15056); conditions: MOLM-13; 100 nM, 2 hours; Lys2; read-out: Inhibition vs DMSO
Method: as §1

MLK3 = MLK3 (Homo sapiens, UniProt Q16584); conditions: 100 nM, 2 hours; Lys2
Method: as §1

MAPKAPK3 = MAPKAPK3 (Homo sapiens, UniProt Q16644); conditions: MOLM-13; 100 nM, 2 hours; ATP Loop; read-out: Inhibition vs DMSO
Method: as §1

RSK2 domain2 = biological target: T4, RSK2 domain2 (Homo sapiens, UniProt P51812); conditions: MOLM-13; 100 nM, 2 hours; Lys2; read-out: Inhibition vs DMSO
T4 construct: RSK2 domain2
Method: as §1

[1] = Lys1, read-out: Inhibition vs DMSO
[2] = Lys2, read-out: Inhibition vs DMSO

Chain of SMG1 (Q96Q15 whole entry): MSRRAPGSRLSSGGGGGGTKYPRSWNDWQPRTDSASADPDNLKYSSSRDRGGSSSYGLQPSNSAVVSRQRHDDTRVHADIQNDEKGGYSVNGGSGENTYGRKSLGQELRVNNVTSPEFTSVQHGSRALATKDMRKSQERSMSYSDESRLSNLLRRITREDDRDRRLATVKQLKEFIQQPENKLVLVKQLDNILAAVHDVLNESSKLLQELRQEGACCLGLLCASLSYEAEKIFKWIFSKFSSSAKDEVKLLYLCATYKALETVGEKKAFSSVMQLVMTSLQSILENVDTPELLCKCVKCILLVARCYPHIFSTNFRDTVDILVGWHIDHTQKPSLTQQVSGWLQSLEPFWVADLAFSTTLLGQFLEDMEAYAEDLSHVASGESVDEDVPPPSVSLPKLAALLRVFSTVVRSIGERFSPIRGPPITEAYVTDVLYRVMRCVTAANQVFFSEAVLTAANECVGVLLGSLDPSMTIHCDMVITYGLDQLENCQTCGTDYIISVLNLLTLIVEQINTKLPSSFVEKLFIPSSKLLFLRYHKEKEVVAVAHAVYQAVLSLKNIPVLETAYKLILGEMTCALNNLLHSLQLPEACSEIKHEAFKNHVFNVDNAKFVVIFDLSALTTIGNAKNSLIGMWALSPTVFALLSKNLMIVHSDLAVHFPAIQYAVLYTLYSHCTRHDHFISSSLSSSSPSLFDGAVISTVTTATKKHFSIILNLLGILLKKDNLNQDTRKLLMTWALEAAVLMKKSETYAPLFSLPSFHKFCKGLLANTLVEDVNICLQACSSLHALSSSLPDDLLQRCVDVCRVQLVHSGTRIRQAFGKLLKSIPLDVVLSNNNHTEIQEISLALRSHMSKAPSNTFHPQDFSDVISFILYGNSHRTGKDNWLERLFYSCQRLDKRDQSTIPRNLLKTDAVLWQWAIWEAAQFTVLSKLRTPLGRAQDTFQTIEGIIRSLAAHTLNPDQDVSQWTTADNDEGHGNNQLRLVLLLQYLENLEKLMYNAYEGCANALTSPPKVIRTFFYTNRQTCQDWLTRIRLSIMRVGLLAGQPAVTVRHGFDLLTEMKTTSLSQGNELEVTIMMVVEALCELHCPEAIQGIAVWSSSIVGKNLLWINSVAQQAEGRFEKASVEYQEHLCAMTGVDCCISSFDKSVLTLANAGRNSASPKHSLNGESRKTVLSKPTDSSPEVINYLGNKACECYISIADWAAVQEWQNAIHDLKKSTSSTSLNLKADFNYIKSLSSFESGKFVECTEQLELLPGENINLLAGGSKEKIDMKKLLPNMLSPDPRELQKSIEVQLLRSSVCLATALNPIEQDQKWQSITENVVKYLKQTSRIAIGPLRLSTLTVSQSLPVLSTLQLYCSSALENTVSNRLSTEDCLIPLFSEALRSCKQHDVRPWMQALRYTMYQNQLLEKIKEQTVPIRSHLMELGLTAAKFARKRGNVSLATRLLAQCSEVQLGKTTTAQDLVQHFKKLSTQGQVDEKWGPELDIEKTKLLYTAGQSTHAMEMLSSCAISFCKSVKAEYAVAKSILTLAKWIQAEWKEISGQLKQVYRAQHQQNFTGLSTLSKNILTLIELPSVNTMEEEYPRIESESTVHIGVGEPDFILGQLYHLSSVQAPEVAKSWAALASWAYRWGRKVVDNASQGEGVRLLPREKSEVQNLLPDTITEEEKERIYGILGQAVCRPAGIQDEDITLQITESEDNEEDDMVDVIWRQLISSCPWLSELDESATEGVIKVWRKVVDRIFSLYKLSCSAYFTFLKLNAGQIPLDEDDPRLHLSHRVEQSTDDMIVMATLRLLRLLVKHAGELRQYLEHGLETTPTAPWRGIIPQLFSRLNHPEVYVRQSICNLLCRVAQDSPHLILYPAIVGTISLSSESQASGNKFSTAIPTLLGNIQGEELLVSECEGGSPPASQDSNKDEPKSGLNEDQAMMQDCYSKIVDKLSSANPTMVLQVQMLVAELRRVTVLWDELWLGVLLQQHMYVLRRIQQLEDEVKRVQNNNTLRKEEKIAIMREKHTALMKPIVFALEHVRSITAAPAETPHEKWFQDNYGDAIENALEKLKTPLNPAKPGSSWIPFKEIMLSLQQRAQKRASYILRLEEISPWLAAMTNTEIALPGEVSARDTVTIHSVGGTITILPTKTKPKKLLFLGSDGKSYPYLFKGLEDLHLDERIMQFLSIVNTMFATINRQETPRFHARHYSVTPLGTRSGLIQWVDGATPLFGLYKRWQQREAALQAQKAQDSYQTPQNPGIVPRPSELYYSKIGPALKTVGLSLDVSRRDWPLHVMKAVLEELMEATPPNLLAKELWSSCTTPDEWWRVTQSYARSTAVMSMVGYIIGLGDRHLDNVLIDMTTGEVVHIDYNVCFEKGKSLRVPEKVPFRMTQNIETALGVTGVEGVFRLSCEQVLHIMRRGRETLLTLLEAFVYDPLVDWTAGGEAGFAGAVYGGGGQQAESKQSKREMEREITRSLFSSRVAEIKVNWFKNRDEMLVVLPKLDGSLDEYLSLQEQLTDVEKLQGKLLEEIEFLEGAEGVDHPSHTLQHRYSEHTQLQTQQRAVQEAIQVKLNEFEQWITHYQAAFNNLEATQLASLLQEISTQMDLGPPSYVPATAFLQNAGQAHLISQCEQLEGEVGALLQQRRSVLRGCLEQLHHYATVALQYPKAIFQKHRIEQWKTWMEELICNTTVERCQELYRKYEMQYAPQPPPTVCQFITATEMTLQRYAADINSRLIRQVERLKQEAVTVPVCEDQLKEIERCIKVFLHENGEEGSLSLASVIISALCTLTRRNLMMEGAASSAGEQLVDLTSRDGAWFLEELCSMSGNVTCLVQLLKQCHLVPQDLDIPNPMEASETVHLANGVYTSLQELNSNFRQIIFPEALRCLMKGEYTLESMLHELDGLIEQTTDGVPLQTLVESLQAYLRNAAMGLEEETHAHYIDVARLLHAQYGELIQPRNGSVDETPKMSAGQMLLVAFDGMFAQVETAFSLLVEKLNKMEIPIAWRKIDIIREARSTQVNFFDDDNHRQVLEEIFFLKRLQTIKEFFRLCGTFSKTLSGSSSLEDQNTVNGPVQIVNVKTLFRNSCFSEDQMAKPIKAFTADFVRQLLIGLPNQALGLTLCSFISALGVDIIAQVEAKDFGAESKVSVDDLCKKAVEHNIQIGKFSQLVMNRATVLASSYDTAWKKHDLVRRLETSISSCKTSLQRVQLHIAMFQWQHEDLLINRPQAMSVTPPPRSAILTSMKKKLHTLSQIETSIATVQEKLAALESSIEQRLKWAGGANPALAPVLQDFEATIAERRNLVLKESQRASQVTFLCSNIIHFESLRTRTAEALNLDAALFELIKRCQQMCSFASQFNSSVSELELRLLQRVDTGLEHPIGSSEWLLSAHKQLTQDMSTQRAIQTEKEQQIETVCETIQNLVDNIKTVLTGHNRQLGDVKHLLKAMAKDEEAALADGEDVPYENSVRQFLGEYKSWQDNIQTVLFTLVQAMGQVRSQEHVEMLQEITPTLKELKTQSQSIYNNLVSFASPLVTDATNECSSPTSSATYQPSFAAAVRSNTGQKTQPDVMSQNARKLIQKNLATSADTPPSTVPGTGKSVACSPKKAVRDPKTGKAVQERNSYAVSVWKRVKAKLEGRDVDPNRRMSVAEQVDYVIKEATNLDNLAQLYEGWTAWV
Chain of NDR1 (Q15208 whole entry): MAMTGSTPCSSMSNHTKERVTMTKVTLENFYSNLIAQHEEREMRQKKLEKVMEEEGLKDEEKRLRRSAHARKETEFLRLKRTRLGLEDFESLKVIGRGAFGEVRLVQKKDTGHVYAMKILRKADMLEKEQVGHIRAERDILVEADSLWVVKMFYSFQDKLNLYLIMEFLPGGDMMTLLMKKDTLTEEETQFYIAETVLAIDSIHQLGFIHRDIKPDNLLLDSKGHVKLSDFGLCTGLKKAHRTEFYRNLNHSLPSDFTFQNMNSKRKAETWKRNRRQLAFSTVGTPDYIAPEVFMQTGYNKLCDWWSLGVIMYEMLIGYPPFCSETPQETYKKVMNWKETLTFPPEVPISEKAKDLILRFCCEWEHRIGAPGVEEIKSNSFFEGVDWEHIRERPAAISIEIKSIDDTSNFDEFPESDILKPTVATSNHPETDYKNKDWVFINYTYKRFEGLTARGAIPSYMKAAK
Chain of FGR (P09769 whole entry): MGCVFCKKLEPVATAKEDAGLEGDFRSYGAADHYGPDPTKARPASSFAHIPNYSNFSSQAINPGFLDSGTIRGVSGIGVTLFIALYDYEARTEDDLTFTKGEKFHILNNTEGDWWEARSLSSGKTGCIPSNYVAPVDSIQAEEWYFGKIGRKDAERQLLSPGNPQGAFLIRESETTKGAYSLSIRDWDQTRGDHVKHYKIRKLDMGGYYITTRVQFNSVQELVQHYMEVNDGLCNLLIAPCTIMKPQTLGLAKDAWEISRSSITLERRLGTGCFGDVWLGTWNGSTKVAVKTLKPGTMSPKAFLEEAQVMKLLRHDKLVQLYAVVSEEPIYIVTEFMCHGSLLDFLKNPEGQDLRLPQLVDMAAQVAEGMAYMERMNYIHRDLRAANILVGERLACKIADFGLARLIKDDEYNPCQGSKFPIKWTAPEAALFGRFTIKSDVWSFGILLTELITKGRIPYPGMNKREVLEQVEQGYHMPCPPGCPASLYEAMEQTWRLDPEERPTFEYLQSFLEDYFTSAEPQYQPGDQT
Chain of CaMK1a (Q14012 whole entry): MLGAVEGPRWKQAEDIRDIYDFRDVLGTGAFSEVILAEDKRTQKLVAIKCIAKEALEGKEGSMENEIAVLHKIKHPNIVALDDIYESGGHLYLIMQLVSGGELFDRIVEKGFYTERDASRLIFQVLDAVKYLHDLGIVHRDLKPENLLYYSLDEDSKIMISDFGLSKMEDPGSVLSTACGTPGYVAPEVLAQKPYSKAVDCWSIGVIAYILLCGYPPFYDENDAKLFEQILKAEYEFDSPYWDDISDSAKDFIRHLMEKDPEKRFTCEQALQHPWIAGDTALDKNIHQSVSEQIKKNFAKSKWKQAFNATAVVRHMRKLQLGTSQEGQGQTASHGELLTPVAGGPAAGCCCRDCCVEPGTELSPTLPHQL

## CN1CCN(Cc2ccc(Nc3ncc(Cl)c(Nc4ccccc4S(=O)(=O)N(C)C)n3)cc2)CC1 [TP-0903]
p70S6K
  inhibition at 0.1 µM: -32.8%
MSK1 domain1
  inhibition at 0.1 µM: -10.3%
FGR
  inhibition at 0.1 µM: -35.3%
IRAK4; Lys1
  Inhibition vs DMSO: 13.2%
IRAK4; Lys2
  Inhibition vs DMSO: 18.7%
ULK3
  Inhibition vs DMSO: 28.7%
LATS1; [1]
  inhibition at 0.1 µM: 6.7%
LATS1; [2]
  inhibition at 0.1 µM: -12.4%
PIP4K2B
  inhibition at 0.1 µM: -16.2%
TAK1
  inhibition at 0.1 µM: -2.8%
NEK8
  inhibition at 0.1 µM: -5.3%
ARAF
  inhibition at 0.1 µM: -2.9%
CaMK1a
  inhibition at 0.1 µM: 1.3%
SMG1; DTVTIHSVGGTITILPTKTKPK
  Inhibition vs DMSO: -27.8%
SMG1; SYPYLFKGLEDLHLDER
  Inhibition vs DMSO: -27.3%
NDR1; [1]
  inhibition at 0.1 µM: 3.7%
NDR1; [2]
  inhibition at 0.1 µM: -11.4%
BRAF
  inhibition at 0.1 µM: 16.8%
MLK3
  Inhibition vs DMSO: 20.5%
MAPKAPK3
  inhibition at 0.1 µM: -45.7%
RSK2 domain2
  inhibition at 0.1 µM: -47.6%
